Measured values taken from patent US20240189318A1, “THERAPEUTIC REGIMENS OF AN INHIBITOR OF THE ENZYMATIC ACTIVITY OF BRG1 AND BRM” (FOGHORN THERAPEUTICS INC., priority 2021, published 2024).

Key:
[1] = tested on: Uveal melanoma cell lines, 92-1 or MP41; assay: 3-day growth inhibition, Compound A compared with clinical PKC and MEK inhibitors; type: cell-based
[2] = tested on: Uveal melanoma cell lines, 92-1 or MP41; assay: 3-day growth inhibition, Compound B compared with clinical PKC and MEK inhibitors; type: cell-based
[3] = tested on: Uveal melanoma cell lines (92-1, MP41, MP38, MP46) and non-small cell lung cancer cells (NCIH1299); assay: 3-day growth inhibition, Compound B; type: cell-based; details: 92-1, MP41, MP38, MP46, NCIH1299; 3 days, 0 to 10 μM
CYP2C19 = CYP2C19 (Homo sapiens, UniProt P33261); assay: Selective chemical inhibition of compound of formula (I) depletion in human liver microsomes, CYP2C19; type: in vitro ADME; parameters: from tissue; host or cells: human liver microsomes; details: human, human liver microsomes, probe compound of formula (I) (depletion); Time-dependent inhibitor; targeted CYP 2C19; inhibitor 10 μM
CYP1A2 = target: T1, CYP1A2 (Homo sapiens, UniProt P05177); assay: in vitro
T1 sequence (P05177 1-516): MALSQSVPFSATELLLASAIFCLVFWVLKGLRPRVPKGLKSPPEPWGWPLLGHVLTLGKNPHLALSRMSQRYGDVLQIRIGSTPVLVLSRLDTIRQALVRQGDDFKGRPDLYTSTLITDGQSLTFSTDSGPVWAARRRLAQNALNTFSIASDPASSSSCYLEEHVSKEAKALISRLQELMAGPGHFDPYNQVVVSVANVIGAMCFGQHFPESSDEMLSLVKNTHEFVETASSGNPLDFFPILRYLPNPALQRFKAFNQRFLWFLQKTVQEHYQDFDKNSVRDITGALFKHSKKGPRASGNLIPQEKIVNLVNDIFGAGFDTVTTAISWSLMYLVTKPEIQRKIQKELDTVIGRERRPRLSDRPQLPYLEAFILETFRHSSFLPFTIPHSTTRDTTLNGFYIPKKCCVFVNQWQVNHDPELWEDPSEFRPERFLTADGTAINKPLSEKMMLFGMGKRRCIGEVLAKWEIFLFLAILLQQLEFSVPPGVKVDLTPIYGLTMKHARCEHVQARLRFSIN

2C8 = target: T2, 2C8 (Homo sapiens, UniProt P10632); assay: Selective chemical inhibition of compound of formula (I) depletion in human liver microsomes, CYP2C8; type: in vitro ADME; details: Time-dependent inhibitor; targeted CYP 2C8; inhibitor 100 μM
T2 construct: from tissue; host or cells: human liver microsomes

CYP3A4/5 = assay: Selective chemical inhibition of compound of formula (I) depletion in human liver microsomes, CYP3A4/5; details: human
[4] = tested on: parental MP41 cells and PKC inhibitor (PKCl)-resistant cells; assay: 7-day growth inhibition assay, parental and PKC inhibitor-resistant cells; type: cell-based; details: 7-day assay
CYP2A6 = target: T3, CYP2A6 (Homo sapiens, UniProt P11509); assay: Selective chemical inhibition of compound of formula (I) depletion in human liver microsomes, CYP2A6; type: in vitro ADME; details: probe compound of formula (I) (depletion), Direct inhibitor, targeted CYP 2A6, inhibitor 10 μM
T3 construct: from tissue; host or cells: human liver microsomes

CYP1A2 mRNA = assay: CYP mRNA level (qRT-PCR) in cultured human hepatocytes, CYP1A2; details: 50 μM, range of fold change observed from three donors
CYP1A2 enzyme activity = assay: CYP enzyme activity in cultured human hepatocytes, CYP1A2; type: in vitro ADME; details: 50 μM, range from three donors
CYP2B6 = target: T4, CYP2B6 (Homo sapiens, UniProt P20813); assay: Selective chemical inhibition of compound of formula (I) depletion in human liver microsomes, CYP2B6; type: in vitro ADME; parameters: from tissue; host or cells: human liver microsomes; details: probe compound of formula (I) (depletion), Time-dependent inhibitor, targeted CYP 2B6, inhibitor 30 μM
T4 sequence (P20813 1-491): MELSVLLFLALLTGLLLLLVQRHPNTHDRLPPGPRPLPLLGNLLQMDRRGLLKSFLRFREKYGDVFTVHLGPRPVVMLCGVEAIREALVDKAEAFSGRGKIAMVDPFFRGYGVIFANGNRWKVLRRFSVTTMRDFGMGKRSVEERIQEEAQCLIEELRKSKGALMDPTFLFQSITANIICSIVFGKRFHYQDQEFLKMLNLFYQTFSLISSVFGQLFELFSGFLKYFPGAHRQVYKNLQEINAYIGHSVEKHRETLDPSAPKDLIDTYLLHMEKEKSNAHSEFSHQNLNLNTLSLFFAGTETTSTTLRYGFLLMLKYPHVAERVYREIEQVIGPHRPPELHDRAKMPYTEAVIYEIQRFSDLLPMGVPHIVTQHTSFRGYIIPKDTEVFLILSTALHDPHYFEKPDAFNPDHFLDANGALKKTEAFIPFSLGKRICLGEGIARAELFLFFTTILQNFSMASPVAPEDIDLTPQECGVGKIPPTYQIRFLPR

CYP2B6 mRNA = assay: CYP mRNA level (qRT-PCR) in cultured human hepatocytes, CYP2B6; details: CYP2B6; 1000 μM; range from three donors
CYP2B6 activity = assay: CYP enzyme activity in cultured human hepatocytes, CYP2B6; type: in vitro ADME; details: 1000 μM, range from three donors
2D6 = 2D6 (Homo sapiens, UniProt P10635); assay: Selective chemical inhibition of compound of formula (I) depletion in human liver microsomes, CYP2D6; details: Direct inhibitor; targeted CYP 2D6; inhibitor 5 μM
CYP2C19 mRNA = assay: CYP mRNA level in cultured human hepatocytes, CYP2C19; type: in vitro ADME; details: CYP2C19; 20 μM; range from three donors
CYP2C9 = CYP2C9 (Homo sapiens, UniProt P11712); assay: in vitro
CYP2C9, sequence (P11712 whole entry): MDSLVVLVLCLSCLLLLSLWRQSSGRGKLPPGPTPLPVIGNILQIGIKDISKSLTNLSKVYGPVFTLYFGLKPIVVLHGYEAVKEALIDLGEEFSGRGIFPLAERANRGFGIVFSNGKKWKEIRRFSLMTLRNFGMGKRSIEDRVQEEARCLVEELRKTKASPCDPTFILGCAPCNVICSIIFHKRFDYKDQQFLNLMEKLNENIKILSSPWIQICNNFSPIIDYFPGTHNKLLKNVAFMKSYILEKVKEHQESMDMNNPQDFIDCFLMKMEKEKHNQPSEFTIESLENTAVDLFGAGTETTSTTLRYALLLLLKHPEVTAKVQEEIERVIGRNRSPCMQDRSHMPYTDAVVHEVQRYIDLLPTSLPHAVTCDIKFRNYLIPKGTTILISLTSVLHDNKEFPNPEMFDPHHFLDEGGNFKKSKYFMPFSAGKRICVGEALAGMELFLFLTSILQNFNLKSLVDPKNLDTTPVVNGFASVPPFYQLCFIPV

T3 sequence (P11509 whole entry): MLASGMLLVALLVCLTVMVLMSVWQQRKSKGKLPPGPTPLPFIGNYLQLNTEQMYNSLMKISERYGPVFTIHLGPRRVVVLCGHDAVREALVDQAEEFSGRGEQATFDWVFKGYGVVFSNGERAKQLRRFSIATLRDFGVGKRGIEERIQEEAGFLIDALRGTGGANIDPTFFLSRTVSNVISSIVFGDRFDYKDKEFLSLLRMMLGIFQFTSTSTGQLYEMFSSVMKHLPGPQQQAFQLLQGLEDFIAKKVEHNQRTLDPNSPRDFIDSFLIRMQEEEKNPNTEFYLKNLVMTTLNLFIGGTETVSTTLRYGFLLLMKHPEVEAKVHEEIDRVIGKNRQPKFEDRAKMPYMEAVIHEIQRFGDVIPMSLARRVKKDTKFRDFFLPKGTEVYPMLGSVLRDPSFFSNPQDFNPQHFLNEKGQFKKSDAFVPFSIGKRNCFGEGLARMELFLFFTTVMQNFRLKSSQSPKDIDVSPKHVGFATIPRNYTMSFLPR
T2 sequence (P10632 whole entry): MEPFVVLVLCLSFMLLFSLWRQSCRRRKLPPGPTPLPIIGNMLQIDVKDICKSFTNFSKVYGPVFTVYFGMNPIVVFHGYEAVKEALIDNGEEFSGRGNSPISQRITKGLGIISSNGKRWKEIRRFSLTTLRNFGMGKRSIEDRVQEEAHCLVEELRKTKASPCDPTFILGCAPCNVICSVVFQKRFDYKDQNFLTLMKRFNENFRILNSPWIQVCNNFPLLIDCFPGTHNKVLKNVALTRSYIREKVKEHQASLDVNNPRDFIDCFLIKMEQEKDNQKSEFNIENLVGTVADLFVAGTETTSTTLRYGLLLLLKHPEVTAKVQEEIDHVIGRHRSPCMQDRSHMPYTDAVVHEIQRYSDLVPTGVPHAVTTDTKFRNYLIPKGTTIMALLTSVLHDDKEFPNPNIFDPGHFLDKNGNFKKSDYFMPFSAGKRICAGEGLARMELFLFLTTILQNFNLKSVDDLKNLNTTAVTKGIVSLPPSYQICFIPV
CYP2C19, sequence (P33261 whole entry): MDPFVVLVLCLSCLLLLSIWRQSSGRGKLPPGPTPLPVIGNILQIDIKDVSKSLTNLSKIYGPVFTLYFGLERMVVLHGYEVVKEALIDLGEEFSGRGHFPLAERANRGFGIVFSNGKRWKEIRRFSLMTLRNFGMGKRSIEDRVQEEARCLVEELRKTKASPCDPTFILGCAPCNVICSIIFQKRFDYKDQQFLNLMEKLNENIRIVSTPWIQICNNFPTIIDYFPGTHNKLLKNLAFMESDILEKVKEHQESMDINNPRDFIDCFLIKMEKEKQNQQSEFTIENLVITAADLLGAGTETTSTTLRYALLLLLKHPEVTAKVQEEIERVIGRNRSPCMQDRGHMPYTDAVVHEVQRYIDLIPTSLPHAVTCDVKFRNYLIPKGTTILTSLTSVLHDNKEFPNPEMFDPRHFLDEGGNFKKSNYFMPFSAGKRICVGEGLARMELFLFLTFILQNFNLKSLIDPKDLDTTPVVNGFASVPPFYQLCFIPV
2D6, sequence (P10635 whole entry): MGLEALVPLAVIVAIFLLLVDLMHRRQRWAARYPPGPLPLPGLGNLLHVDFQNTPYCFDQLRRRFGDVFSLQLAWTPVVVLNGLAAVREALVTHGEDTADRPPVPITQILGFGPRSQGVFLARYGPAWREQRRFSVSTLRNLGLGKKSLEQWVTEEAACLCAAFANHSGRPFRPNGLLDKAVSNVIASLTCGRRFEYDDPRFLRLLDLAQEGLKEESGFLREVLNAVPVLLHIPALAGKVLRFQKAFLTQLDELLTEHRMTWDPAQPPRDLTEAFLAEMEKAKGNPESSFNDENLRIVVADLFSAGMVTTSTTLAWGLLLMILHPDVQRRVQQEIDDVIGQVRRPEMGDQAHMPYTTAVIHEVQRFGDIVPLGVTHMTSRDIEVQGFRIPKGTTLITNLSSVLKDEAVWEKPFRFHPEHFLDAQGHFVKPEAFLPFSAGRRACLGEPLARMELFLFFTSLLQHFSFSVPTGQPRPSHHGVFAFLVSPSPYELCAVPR

Structure (SMILES): CSCC[C@H](NC(=O)c1ccc(N)cc1)C(=O)Nc1nc(-c2cccc(-c3ccncc3)c2)cs1 [Compound A]
- onset of inhibition versus clinical PKC and MEK inhibitors ([1]; 92-1 or MP41): faster onset of inhibition
- growth inhibition of uveal melanoma cells versus clinical PKC and MEK inhibitors ([1]; 92-1 or MP41, 3 days, 0 to 10 μM, vs LXS196 and selumetinib): comparable growth inhibition

Structure (SMILES): CSCC[C@H](NC(=O)c1ccn(S(C)(=O)=O)c1)C(=O)Nc1nc(-c2cccc(-c3ccncc3)c2)cs1 [Compound B]
- onset of growth inhibition versus clinical PKC and MEK inhibitors ([2]; 92-1 or MP41): faster onset of growth inhibition
- growth inhibition of uveal melanoma cells versus clinical PKC and MEK inhibitors ([2]; 92-1 or MP41, 3 days, vs LXS196 and selumetinib): more potent effects on growth inhibition
- growth inhibition in the cell lines [3]: potent growth inhibition

Structure (SMILES): COc1ccc2nc([S@@+]([O-])Cc3ncc(C)c(OC)c3C)[nH]c2c1 [Esomeprazole, reference compound]
- inhibition at 10 µM (CYP2C19): 27.1%

Structure (SMILES): Cc1nc2c([nH]1)c(=O)n(C)c(=O)n2Cc1ccco1 [Furafylline]
- inhibition at 10 µM (CYP1A2): 1.9%

Structure (SMILES): Cc1ccc(C)c(OCCCC(C)(C)C(=O)O[C@@H]2O[C@H](C(=O)O)[C@@H](O)[C@H](O)[C@H]2O)c1 [Gemfibrozil glucuronide]
- % Inhibition of compound of formula (I) depletion in human liver microsomes (2C8): No

Structure (SMILES): CC(=O)N1CCN(c2ccc(OCC3COC(Cn4ccnc4)(c4ccc(Cl)cc4Cl)O3)cc2)CC1 (stereo not shown) [Ketoconazole, reference compound]
- inhibition at 1 µM (CYP3A4/5): 83.3%

Structure (SMILES): CC1(N)CCN(c2cccnc2NC(=O)c2nc(-c3ncccc3C(F)(F)F)cnc2N)CC1 [LXS196]
- sensitivity of PKCl-resistant cells relative to parental MP41 cells [4]: could tolerate growth at higher concentrations

Structure (SMILES): N#Cc1ccc(C(c2ccc(C#N)cc2)n2cncn2)cc1 [Letrozole]
- inhibition at 10 µM (CYP2A6): 9.1%

Structure (SMILES): COc1ccc2[nH]c([S+]([O-])Cc3ncc(C)c(OC)c3C)nc2c1 (stereo not shown) [Omeprazole, reference compound]
- Positive Control mRNA Fold Change (CYP1A2 mRNA): 50.2-118
- Positive Control Enzyme Activity Fold Change (CYP1A2 enzyme activity): 20.0-93.9

Structure (SMILES): c1ccc(C2(N3CCCCC3)CCCCC2)cc1 [Phencyclidine]
- inhibition at 30 µM (CYP2B6): 5.7%

Structure (SMILES): CCC1(c2ccccc2)C(=O)NC(=O)NC1=O [Phenobarbital, reference compound]
- Positive Control mRNA Fold Change (CYP2B6 mRNA): 15.3-39.6
- Positive Control Enzyme Activity Fold Change (CYP2B6 activity): 11.9-16.7

Structure (SMILES): C=C[C@H]1C[N@@]2CC[C@H]1C[C@@H]2[C@@H](O)c1ccnc2ccc(OC)cc12 [Quinidine]
- % Inhibition of compound of formula (I) depletion in human liver microsomes (2D6): No

Structure (SMILES): CO[C@H]1/C=C/O[C@@]2(C)Oc3c(C)c(O)c4c(O)c(c(/C=N/N5CCN(C)CC5)c(O)c4c3C2=O)NC(=O)/C(C)=C\C=C\[C@H](C)[C@H](O)[C@@H](C)[C@@H](O)[C@@H](C)[C@H](OC(C)=O)[C@@H]1C [Rifampin, reference compound]
- Positive Control mRNA Fold Change (CYP2C19 mRNA): 0.61-1.01

Structure (SMILES): O=C(O)COc1ccc(C(=O)c2cccs2)c(Cl)c1Cl [Tienilic acid]
- inhibition at 20 µM (CYP2C9): 2.4%
